Assay results published in PMC6017588, “Synthesis and Structure-Activity Relationships of LP1 Derivatives: N-Methyl-N-phenylethylamino Analogues as Novel MOR Agonists” (Molecules : A Journal of Synthetic Chemistry and Natural …, 2018).
Where a name gives a salt, the structure may show the parent alone. Read-outs that look alike come from different tables or passages of the source.

How the values were obtained:
DOR [1] = biological target: T1, DOR (Rattus norvegicus, UniProt P33533); test: DOR competitive radioligand binding ([3H]-DPDPE displacement, rat brain membranes)
T1 construct: from tissue; host or cells: rat brain membranes

KOR [2] = biological target: T2, KOR (Cavia porcellus, UniProt P41144); test: KOR competitive radioligand binding ([3H]-(+)-U69,593 displacement, guinea pig brain membranes)
T2 construct: from tissue; host or cells: guinea pig brain membranes

MOR [3] = biological target: T3, MOR (Rattus norvegicus, UniProt P33535); test: Inhibition of forskolin-stimulated cAMP accumulation in HEK293 cells stably expressing MOR; type: cell-based; conditions: for Emax: maximal percent inhibition of cAMP accumulation, read-out: Imax (%) ± SD MOR
Description: As typical Gi/o coupled receptor, MOR, DOR and KOR signals are mediated by AC inhibition.
(§1) Cell culture. HEK293 cells stably expressing either the EE-tagged MOR or the flag-tagged KOR [20, 21, 22] were grown in Dulbecco’s modified Eagle’s medium (DMEM) supplemented with 10% fetal calf serum, 2 mM glutamine, 100 U/mL penicillin, and 0.1 mg/mL streptomycin under 5% CO2 at 37 °C.
(§2) Measurements of cAMP accumulation. Measurements of AC activity were performed as described by Papakonstantinou et al. or the GloSensor cAMP Assay (Promega) following the Manufacturer’s instructions. The generation of cAMP was assessed in response to treatment of the cells with various concentrations of the appropriate ligand (10 pM–50 μΜ) using 50 μΜ forskolin at 37 °C. Values are means ± SD of triplicate determinations from three independent experiments. Analysis of the data was performed using Origin 7.5 software (OriginLab Corporation, Northampton, MA, USA).

KOR [4] = biological target: T4, KOR (Homo sapiens, UniProt P41145); test: Inhibition of forskolin-stimulated cAMP accumulation in HEK293 cells stably expressing KOR; type: cell-based; conditions: for Imax (%) ± SD KOR: maximal percent inhibition of cAMP accumulation; for Imax (%) ± SD KOR / cAMP inhibition: HEK293-KOR; for cAMP inhibition: only at very high concentrations, not dose-dependent
T4 construct: FLAG; expressed in transfected cells
Description: As typical Gi/o coupled receptor, MOR, DOR and KOR signals are mediated by AC inhibition. Given the significant MOR and moderate KOR affinity, to examine the functional role of target compounds, in opioid receptor signaling, the ability of 5a–d and 6a–d to affect forskolin-stimulated AC activity in HEK293 cells stably expressing the MOR or KOR was tested and the results are reported in Table 2.
as §1, §2

MOR [5] = biological target: T3, MOR; test: MOR competitive radioligand binding ([3H]-DAMGO displacement, rat brain membranes); parameters: from tissue; host or cells: rat brain membranes
[6] = tested on: acute thermal nociception; test: Radiant heat tail flick test in mice; type: in vivo, mouse
Description: The MOR agonist 5c was evaluated for acute agonistic effects in mice. In detail, it was tested for its ability to produce antinociception in the mouse tail flick test at the dose-range of 1–7 mg/kg intraperitoneal (ip) injected. The compound produced a dose-dependent analgesic effect compared to the group of mice treated with saline (* p < 0.05 vs. saline-treated mice).
Animals. Male Swiss […] mice (Envigo Laboratories, S. Pietro al Natisone (UD), Italy) weighing 25–30 g were housed six to a cage. Animals were kept at a constant room temperature (25 ± 1 °C) under a 12:12 h light and dark cycle with free access to food and water. Each mouse was used for only one experiment.
Nociceptive Test. Nociception was evaluated by the radiant heat tail-flick test. Briefly, it consisted of irradiation of the lower third of the tail with an infrared source (Ugo Basile, Comerio, Italy). The day before the experiment, mice were habituated to the procedure for measuring nociception threshold. Experiments were performed at room temperature (25 ± 1 °C). The basal pre-drug latency was established between 3 and 5 s and was calculated as the average of the first three measurements, which were performed at 5 min intervals. A cut-off latency of 15 s was established to minimize damage to the tail. All tested compounds were dissolved in pyrogen-free isotonic saline (Baxter Healthcare, Deerfield, IL, USA) and DMSO (5%) and were administered to mice ip. Post-treatment tail flick latencies (TFLs) were determined at 30, 45, 60, 75 and 90 min after ip injection.
Statistical Analysis. All values were presented as means ± SD. Intergroup comparisons were assessed using an initial two-way analysis of variance (ANOVA) followed by Duncan’s multiple range post-hoc test. Differences were considered significant when * p < 0.05. Effective dose-50 (ED50) values were calculated using least-squares linear regression analysis followed by calculation of 95% confidence limits (95% CL) by the method of Bliss.

DOR [7] = tested on: DOR; parameters: method as in PMID 20599386; conditions: earlier work; read-out: IC50 DOR (intrinsic activity); cited from earlier work
[8] = parameters: method as in PMID 22100511, PMID 22580287; conditions: in vivo tested; cited from earlier work

Row | Compound | melting point [°C] | Ki (DOR [1]) [nM] | Ki (KOR [2]) [nM] | Emax (MOR [3]) [%] | Ki (MOR [5]) [nM] | other results
1 | C[C@H]1[C@H]2Cc3ccc(O)cc3[C@]1(C)CCN2CCNc1ccccc1 (as salt: oxalate) [5a, (2R,6R,11R)-3-(2-Anilinoethyl)-6,11-dimethyl-1,2,3,4,5,6-hexahydro-2,6-methano-3-benzazocin-8-ol] | 145 to 146 |  |  |  |  | 
2 | C[C@H]1[C@H]2Cc3ccc(O)cc3[C@]1(C)CCN2CCNC1CCCCC1 (as salt: oxalate) [5b, (2R,6R,11R)-3-[2-(Cyclohexylamino)ethyl)-6,11-dimethyl-1,2,3,4,5,6-hexahydro-2,6-methano-3-benzazocin-8-ol] | 153 to 155 |  |  |  |  | 
3 | CCN(CCN1CC[C@@]2(C)c3cc(O)ccc3C[C@@H]1[C@@H]2C)c1ccccc1 (as salt: oxalate) [5d, (2R,6R,11R)-6,11-Dimethyl-{2-[ethyl(phenyl)amino]ethyl}-1,2,3,4,5,6-hexahydro-2,6-methano-3-benzazocin-8-ol] | 158 to 160 |  |  |  |  | 
4 | C[C@H]1[C@H]2Cc3ccc(O)cc3[C@]1(C)CCN2CCCNc1ccccc1 (as salt: oxalate) [6a, (2R,6R,11R)-3-(3-Anilinopropyl)-6,11-dimethyl-1,2,3,4,5,6-hexahydro-2,6-methano-3-benzazocin-8-ol] | 149 to 150 |  |  |  |  | 
5 | C[C@H]1[C@H]2Cc3ccc(O)cc3[C@]1(C)CCN2CCCNC1CCCCC1 (as salt: oxalate) [6b, (2R,6R,11R)-3-[3-(Cyclohexylamino)propyl)-6,11-dimethyl-1,2,3,4,5,6-hexahydro-2,6-methano-3-benzazocin-8-ol] | 136 to 138 |  |  |  |  | 
6 | C[C@H]1[C@H]2Cc3ccc(O)cc3[C@]1(C)CCN2CCCN(C)c1ccccc1 (as salt: oxalate) [6c, (2R,6R,11R)-6,11-Dimethyl-{3-[methyl(phenyl)amino]propyl}-1,2,3,4,5,6-hexahydro-2,6-methano-3-benzazocin-8-ol] | 140 to 142 |  |  |  |  | 
7 | CCN(CCCN1CC[C@@]2(C)c3cc(O)ccc3C[C@@H]1[C@@H]2C)c1ccccc1 (as salt: oxalate) [6d, (2R,6R,11R)-6,11-Dimethyl-{3-[ethyl(phenyl)amino]propyl}-1,2,3,4,5,6-hexahydro-2,6-methano-3-benzazocin-8-ol] | 138 to 139 |  |  |  |  | 
8 | C[C@H]1[C@H]2Cc3ccc(O)cc3[C@]1(C)CCN2CCNc1ccccc1 [5a, (2R,6R,11R)-3-(2-Anilinoethyl)-6,11-dimethyl-1,2,3,4,5,6-hexahydro-2,6-methano-3-benzazocin-8-ol] |  | 270 ± 10 | 100 ± 5 | 60 ± 4 | 83 ± 30 | IC50 (KOR [4]): 1000 ± 65 nM
9 | C[C@H]1[C@H]2Cc3ccc(O)cc3[C@]1(C)CCN2CCNC1CCCCC1 [5b, (2R,6R,11R)-3-[2-(Cyclohexylamino)ethyl)-6,11-dimethyl-1,2,3,4,5,6-hexahydro-2,6-methano-3-benzazocin-8-ol] |  | 70 ± 2 | 19.8 ± 0.9 | 28 ± 1 | 8.3 ± 0.8 | IC50 (KOR [4]): 180 ± 50 nM; Imax (%) ± SD KOR (KOR [4]): 58 ± 4%
10 | C[C@H]1[C@H]2Cc3ccc(O)cc3[C@]1(C)CCN2CCN(C)c1ccccc1 [5c, (2R,6R,11R)-6,11-Dimethyl-{2-[methyl(phenyl)amino]ethyl}-1,2,3,4,5,6-hexahydro-2,6-methano-3-benzazocin-8-ol] |  | 147 ± 5.7 | 31 ± 1.3 | 72 | 6.1 ± 0.5 | Functional profile at MOR (MOR [3]; cAMP accumulation): MOR agonist; cAMP inhibition (KOR [4]): 30%; ED50 ([6]; 0.75 h, mouse tail flick, ip, 45 min post-treatment, read-out: ED50 (95% CL)): 4.33 mg/kg; Time of maximal antinociceptive activity ([6]; after ip injection, mouse tail flick): 45 min; Duration of significant antinociceptive activity ([6]; highest dose (7 mg/kg ip), after injection): 75 min; Effect of naloxone pretreatment on antinociception ([6]; naloxone 3 mg/kg sc, 30 min prior to 5c, data not shown): prevented its antinociceptive effect
11 | CCN(CCN1CC[C@@]2(C)c3cc(O)ccc3C[C@@H]1[C@@H]2C)c1ccccc1 [5d, (2R,6R,11R)-6,11-Dimethyl-{2-[ethyl(phenyl)amino]ethyl}-1,2,3,4,5,6-hexahydro-2,6-methano-3-benzazocin-8-ol] |  | 411 ± 14 | 28.7 ± 1 | 55 ± 3 | 160 ± 7 | cAMP inhibition (KOR [4]): 30%
12 | C[C@H]1[C@H]2Cc3ccc(O)cc3[C@]1(C)CCN2CCCNc1ccccc1 [6a, (2R,6R,11R)-3-(3-Anilinopropyl)-6,11-dimethyl-1,2,3,4,5,6-hexahydro-2,6-methano-3-benzazocin-8-ol] |  | 117 ± 5.2 | 71 ± 2 | 50 ± 3 | 7 ± 0.6 | IC50 (KOR [4]): 1400 ± 69 nM; Imax (%) ± SD KOR (KOR [4]): 53 ± 4%
13 | C[C@H]1[C@H]2Cc3ccc(O)cc3[C@]1(C)CCN2CCCNC1CCCCC1 [6b, (2R,6R,11R)-3-[3-(Cyclohexylamino)propyl)-6,11-dimethyl-1,2,3,4,5,6-hexahydro-2,6-methano-3-benzazocin-8-ol] |  | > 5000 | 126 ± 4.5 |  | 48 ± 1.4 | IC50 (KOR [4]): > 5000 nM; Imax (%) ± SD KOR (KOR [4]): 44 ± 3%
14 | C[C@H]1[C@H]2Cc3ccc(O)cc3[C@]1(C)CCN2CCCN(C)c1ccccc1 [6c, (2R,6R,11R)-6,11-Dimethyl-{3-[methyl(phenyl)amino]propyl}-1,2,3,4,5,6-hexahydro-2,6-methano-3-benzazocin-8-ol] |  | > 5000 | 94 ± 3.5 | 50 ± 3 | 68 ± 1.6 | cAMP inhibition (KOR [4]): 30%
15 | CCN(CCCN1CC[C@@]2(C)c3cc(O)ccc3C[C@@H]1[C@@H]2C)c1ccccc1 [6d, (2R,6R,11R)-6,11-Dimethyl-{3-[ethyl(phenyl)amino]propyl}-1,2,3,4,5,6-hexahydro-2,6-methano-3-benzazocin-8-ol] |  | 1060 ± 152 | 56 ± 1.7 | 40 ± 2 | 86 ± 3 | cAMP inhibition (KOR [4]): 30%
16 | C[C@@H](NC(=O)[C@@H](N)Cc1ccc(O)cc1)C(=O)NCC(=O)N(C)[C@@H](Cc1ccccc1)C(=O)NCCO [DAMGO, reference compound] |  |  |  | 73 ± 0.3 |  | 
17 | C[C@H]1[C@H]2Cc3ccc(O)cc3[C@]1(C)CCN2CCC(=O)Nc1ccccc1 [LP1, reference compound] |  |  |  | 73 ± 3.8 |  | Ki (DOR [1]; [3H]DPDPE displacement, rat brain membranes, read-out: Ki (nM) ± SEM DOR): 29.1 ± 1 nM; Ki (KOR [2]; [3H]U69,593 displacement, guinea pig brain membranes, read-out: Ki (nM) ± SEM KOR): 110 ± 6 nM; IC50 (DOR [7]): 12 nM; ED50 (analgesia) [8]: 2.03 mg/kg; Ki (MOR [5]; [3H]DAMGO displacement, rat brain membranes, read-out: Ki (nM) ± SEM MOR): 0.83 ± 0.05 nM
18 | Oc1ccc2c3c1O[C@H]1c4[nH]c5ccccc5c4C[C@@]4(O)[C@@H](C2)N(CC2CC2)CC[C@]314 [Naltrindole, reference compound] |  | 1.13 ± 0.1 |  |  |  | 
